Our source for the IC50 and EC50 values is ChEMBL document CHEMBL1201862, “PubChem BioAssay data set” (2004).

One assay addresses Melanocortin receptor 4 (Homo sapiens, UniProt P32245). The assay is described as follows: inhibitors of MC4R cAMP signaling – cell-based, TR-FRET, biased antagonists, dose response (AID 602298).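 Further: antagonist potency against agonist-stimulated cAMP production.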 In kind it is functional.
Assay [1] is described as follows: cAMP pathway inhibition in counterscreen cell line – TR-FRET cAMP detection, counter-screen for MC4R biased antagonist project, dose response (AID 602305).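 Further: U2OS cells stimulated with forskolin near its EC80 as the cAMP inducer; potency is for inhibition of forskolin-stimulated cAMP signaling.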 The assay is classed as functional, cell-based. (The purpose of a counterscreen is to sort out artefacts and off-target activity.)
The target of assay [2] is Melanin-concentrating hormone receptor 1 (Homo sapiens, UniProt Q99705). The assay is described as follows: Late-stage fluorescence-based counterscreen for antagonists of the G-protein coupled receptor 7 (GPR7): cell-based dose response assay to identify antagonists of the melanin-concentrating hormone receptor 1 (MCHR1) Set 5. The assay is classed as functional.
In assay [3] the target is T1, Neuropeptides B/W receptor type 1 (Homo sapiens, UniProt P48145).
T1 sequence (P48145 whole entry): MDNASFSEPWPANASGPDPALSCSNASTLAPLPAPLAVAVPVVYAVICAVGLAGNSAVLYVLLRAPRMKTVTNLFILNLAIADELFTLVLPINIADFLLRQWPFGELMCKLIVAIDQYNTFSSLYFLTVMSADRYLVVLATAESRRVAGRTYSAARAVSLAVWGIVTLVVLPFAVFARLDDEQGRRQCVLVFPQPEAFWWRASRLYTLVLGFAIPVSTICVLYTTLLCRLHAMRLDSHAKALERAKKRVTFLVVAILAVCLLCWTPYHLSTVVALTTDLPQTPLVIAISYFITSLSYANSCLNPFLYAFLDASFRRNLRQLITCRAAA
The assay is described as follows: human NPBW1 receptor blockade, IC50 – cell-based, fluorescence, dose response, set 5, late-stage follow-up (AID 588566). In kind it is functional.

The target in assay [4] is T2, Apoptotic protease-activating factor 1 (Homo sapiens, UniProt O14727).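 Further: caspase-3 cleavage of fluorogenic Rh110 DEVD substrate downstream of apoptosome activation.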
T2 sequence (O14727 whole entry): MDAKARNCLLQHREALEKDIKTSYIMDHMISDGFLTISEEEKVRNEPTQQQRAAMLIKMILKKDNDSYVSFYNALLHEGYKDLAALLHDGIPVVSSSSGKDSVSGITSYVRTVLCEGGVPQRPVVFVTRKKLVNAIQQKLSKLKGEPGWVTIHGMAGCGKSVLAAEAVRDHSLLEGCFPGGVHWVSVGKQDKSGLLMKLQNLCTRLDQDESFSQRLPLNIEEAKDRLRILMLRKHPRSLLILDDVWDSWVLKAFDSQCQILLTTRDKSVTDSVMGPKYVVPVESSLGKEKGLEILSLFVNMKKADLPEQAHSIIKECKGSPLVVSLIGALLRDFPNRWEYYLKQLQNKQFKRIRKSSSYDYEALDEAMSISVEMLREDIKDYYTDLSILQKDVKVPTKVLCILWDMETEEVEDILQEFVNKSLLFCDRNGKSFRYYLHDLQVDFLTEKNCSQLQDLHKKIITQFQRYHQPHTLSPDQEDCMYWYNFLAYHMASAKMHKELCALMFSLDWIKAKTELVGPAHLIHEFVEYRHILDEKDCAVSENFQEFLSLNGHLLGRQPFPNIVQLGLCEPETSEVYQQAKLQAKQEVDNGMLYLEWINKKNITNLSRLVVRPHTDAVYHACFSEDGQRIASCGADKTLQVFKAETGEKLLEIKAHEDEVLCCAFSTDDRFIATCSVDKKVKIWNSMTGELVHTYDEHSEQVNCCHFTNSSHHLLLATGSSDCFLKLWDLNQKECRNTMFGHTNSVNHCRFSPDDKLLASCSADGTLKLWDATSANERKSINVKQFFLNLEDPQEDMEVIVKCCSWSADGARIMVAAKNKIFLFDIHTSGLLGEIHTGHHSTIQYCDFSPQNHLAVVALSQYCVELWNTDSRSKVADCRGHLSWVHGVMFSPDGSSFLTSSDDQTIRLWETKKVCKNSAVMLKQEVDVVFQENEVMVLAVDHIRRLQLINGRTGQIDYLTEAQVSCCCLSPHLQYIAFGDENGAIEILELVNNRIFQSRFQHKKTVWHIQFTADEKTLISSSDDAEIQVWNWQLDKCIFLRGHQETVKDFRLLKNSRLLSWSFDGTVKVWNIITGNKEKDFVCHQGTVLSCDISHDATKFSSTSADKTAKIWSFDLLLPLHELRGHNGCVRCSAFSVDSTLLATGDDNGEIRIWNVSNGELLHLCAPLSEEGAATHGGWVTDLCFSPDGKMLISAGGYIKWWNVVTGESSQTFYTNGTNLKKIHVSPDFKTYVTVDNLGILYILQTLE
The assay is described as follows: SAR analysis of small molecule Activators of Apaf-1 in a Fluorescent assay. The settings on record: read-out: EC50_Mean. The assay is classed as functional.

The next assay deals with CHO-K1. The assay is described as follows: Counterscreen for antagonists of the orexin 1 receptor (OX1R; HCRTR1): Homogeneous time resolved fluorescence (HTRF)-based cell-based dose response assay to identify antagonists of the parental CHO-K1 cell line. [Related pubchem assays (depositor defined):AID434989, AID435008, AID463079, AID485270, AID492963, AID492964, AID492965, AID493232, AID504699, AID504701]. Conditions: Cricetulus griseus. In kind it is functional.

Assay [5] in a line: Counterscreen for antagonists of the orexin 1 receptor (OX1R; HCRTR1): Fluorescence-based cell-based high throughput dose response assay to identify antagonists of the parental CHO cell line. [Related pubchem assays (depositor defined):AID434989, AID435008, AID463079, AID485270, AID492963, AID492964, AID492965, AID493232, AID504699, AID504701]. The assay is classed as functional.

The target of assay [6] is T3, Orexin/Hypocretin receptor type 1 (Homo sapiens, UniProt O43613).
T3 sequence (O43613 whole entry): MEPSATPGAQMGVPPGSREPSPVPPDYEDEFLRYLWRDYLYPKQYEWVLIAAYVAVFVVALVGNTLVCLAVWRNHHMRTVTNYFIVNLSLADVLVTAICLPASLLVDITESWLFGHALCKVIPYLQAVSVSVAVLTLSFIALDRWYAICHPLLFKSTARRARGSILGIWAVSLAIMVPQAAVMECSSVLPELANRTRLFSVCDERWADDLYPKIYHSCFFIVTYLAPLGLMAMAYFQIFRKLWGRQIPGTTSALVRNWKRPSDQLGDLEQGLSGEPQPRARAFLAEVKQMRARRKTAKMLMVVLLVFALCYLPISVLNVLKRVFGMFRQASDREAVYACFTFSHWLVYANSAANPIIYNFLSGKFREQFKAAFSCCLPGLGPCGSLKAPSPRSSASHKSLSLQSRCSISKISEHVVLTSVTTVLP
The assay is described as follows: Homogeneous Time Resolved Fluorescence (HTRF)-based cell-based high throughput dose response assay for antagonists of the orexin 1 receptor (OX1R; HCRTR1). [Related pubchem assays (depositor defined):AID434989, AID435008, AID463079, AID485270, AID492963, AID492964, AID492965, AID493232, AID504717, AID504718]. The assay is classed as functional.

Assay [7] deals with T4, Orexin receptor type 2 (Homo sapiens, UniProt O43614).
T4 sequence (O43614 whole entry): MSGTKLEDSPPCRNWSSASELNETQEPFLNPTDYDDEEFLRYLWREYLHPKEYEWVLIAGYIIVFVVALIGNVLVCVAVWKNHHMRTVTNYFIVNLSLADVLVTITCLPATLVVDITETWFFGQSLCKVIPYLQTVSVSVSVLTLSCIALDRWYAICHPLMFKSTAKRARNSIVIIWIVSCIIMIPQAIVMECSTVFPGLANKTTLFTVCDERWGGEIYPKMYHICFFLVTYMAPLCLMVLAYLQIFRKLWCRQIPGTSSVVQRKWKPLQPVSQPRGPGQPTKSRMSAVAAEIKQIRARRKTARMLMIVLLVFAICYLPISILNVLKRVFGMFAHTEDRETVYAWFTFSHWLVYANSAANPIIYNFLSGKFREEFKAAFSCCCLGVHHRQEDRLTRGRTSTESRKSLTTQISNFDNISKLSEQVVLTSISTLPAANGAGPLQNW
The assay is described as follows: Counterscreen assay for antagonists of the orexin 1 receptor (OX1R; HCRTR1): Homogeneous Time Resolved Fluorescence (HTRF)-based cell-based dose response assay for antagonists of the orexin 2 receptor (OX2R; HCRTR2), run by assay provider. In kind it is functional.

Assay [8] concerns the target T3, Orexin/Hypocretin receptor type 1. The assay is described as follows: Fluorescence-based cell-based high throughput dose response assay for antagonists of the orexin 1 receptor (OX1R; HCRTR1). [Related pubchem assays (depositor defined):AID434989, AID435008, AID463079, AID485270, AID492963, AID492964, AID492965, AID493232, AID504717, AID504718]. The assay is classed as functional.

Assay [9] concerns the target T4, Orexin receptor type 2. The assay is described as follows: Counterscreen assay for antagonists of the orexin 1 receptor (OX1R; HCRTR1): Fluorescence-based cell-based dose response assay for antagonists of the orexin 2 receptor (OX2R; HCRTR2), run by assay provider. The assay is classed as functional.
Another assay addresses T5, Streptokinase A (Streptococcus pyogenes serotype M1, UniProt P10520).
T5 sequence (P10520 whole entry): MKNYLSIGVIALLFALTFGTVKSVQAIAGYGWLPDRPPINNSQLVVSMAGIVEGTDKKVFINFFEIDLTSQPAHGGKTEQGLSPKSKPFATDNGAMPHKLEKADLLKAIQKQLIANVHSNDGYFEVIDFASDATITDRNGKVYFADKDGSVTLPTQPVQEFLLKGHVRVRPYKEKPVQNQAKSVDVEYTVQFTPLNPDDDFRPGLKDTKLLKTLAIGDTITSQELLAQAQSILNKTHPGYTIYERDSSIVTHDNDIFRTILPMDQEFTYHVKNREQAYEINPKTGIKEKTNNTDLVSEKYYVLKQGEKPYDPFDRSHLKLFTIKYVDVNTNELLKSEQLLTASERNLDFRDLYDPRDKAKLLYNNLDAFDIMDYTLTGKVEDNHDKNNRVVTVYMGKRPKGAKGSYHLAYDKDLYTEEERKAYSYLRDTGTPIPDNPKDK
The assay is described as follows: viability-normalized secreted streptokinase activity reduction – plasminogen activation absorbance, OD405, dose response (AID 1914).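 Further: secreted streptokinase activity via plasminogen activation per viability signal from cell pellet.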 The assay is classed as functional, Streptococcus pyogenes M1 GAS.

In assay [10] the test system is Streptococcus sp. 'group A'. The assay is described as follows: Streptococcus pyogenes SK(-)GAS viability under kanamycin – luminescence, BacTiterGlo, confirmation, counter-screen for streptokinase expression inhibitor project, dose response (AID 1900). The assay is classed as functional, organism-based.
The subject of a further assay is Streptococcus. The assay is described as follows: GAS UMAA2166 growth inhibition – luminescence, BacTiterGlo, counter-screen for streptokinase expression inhibitor project, dose response (AID 1915).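 Further: potency for reduction of bacterial viability or growth.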 In kind it is functional, organism-based.
For assay [11], the target named is Benomyl/methotrexate resistance protein (Candida albicans, UniProt P28873). The assay is described as follows: Candida albicans Mdr1 pump inhibition curves – singleplex, Cherry Pick1 hits, dose response (AID 588608). The assay is classed as functional.
The target in assay [12] is T6, Interleukin-8 (Homo sapiens, UniProt P10145). The assay is described as follows: Dose Response confirmation of uHTS small molecule hits for cystic fibrosis induced NFkb Inhibitors in a PAF-induced IL8 counterscreen. In kind it is functional. Conditions: read-out: IC50_Mean.
Assay [13] has as its target T6, Interleukin-8. The assay is described as follows: Dose Response confirmation of uHTS small molecule hits for cystic fibrosis induced NFkb Inhibitors in a TNFa-induced IL8 counterscreen. The assay is classed as functional. Conditions: read-out: IC50_Mean.

Molecules are shown by their SMILES. Activity calls are given as the source filed them.

T6 sequence (P10145 whole entry): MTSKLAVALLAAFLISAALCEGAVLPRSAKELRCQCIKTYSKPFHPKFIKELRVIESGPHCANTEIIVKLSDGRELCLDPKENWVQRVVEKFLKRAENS
Melanin-concentrating hormone receptor 1, sequence (Q99705 whole entry): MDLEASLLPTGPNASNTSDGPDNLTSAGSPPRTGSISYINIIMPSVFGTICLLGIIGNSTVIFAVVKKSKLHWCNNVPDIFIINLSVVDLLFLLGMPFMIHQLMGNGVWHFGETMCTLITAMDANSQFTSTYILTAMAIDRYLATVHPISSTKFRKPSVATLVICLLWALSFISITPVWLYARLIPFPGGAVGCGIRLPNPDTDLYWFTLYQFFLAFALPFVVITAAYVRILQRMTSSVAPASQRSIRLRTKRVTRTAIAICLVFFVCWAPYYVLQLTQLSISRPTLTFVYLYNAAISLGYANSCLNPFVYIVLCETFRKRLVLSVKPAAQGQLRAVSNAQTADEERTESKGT
Benomyl/methotrexate resistance protein, sequence (P28873 whole entry): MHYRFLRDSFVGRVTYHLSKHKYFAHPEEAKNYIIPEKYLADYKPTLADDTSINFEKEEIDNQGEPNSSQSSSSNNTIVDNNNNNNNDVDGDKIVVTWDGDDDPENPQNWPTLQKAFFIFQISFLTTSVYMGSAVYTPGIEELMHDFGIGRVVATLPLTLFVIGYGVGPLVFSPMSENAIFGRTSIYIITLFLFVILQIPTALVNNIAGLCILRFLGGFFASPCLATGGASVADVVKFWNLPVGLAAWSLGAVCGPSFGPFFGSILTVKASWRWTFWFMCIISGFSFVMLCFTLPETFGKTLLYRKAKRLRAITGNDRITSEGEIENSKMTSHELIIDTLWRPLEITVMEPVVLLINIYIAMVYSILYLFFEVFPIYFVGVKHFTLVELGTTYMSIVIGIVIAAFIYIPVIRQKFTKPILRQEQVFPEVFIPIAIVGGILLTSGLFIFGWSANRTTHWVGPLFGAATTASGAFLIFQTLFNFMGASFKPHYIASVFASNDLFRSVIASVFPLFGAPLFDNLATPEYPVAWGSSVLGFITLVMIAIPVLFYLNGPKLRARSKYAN
Melanocortin receptor 4, sequence (P32245 whole entry): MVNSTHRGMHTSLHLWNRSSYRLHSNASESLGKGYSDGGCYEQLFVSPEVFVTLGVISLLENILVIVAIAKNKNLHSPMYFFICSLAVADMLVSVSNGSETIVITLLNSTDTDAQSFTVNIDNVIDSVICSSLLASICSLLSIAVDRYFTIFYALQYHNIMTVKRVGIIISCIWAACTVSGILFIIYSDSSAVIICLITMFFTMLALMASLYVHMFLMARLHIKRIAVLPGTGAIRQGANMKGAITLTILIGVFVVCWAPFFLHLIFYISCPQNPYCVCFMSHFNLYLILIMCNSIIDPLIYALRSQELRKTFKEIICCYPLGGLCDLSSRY

Regarding `O=S(=O)(c1ccc(Br)c2nsnc12)N1CCOCC1`, the IC50 (on Melanocortin receptor 4; in assay [1]) was > 64.6 µM (inactive) throughout.
On to `CCOC(=O)C(C(=O)OCC)c1c(Cl)cnn(Cc2cccc3ccccc23)c1=O`, for which the IC50 in assay [2] is 4.03 µM (active); in assay [3], 3.77 µM (active).
As to `CC1(C)CC2CC(C)(CN2C(=O)C2CC(c3ccc(F)cc3)=NO2)C1` (stereo not given), the EC50 in assay [4] is > 100 µM (inactive).
On to `COc1ccc([C@@H]2CC=C(C(=O)O)[C@H](c3cccc(Cl)c3)N2S(=O)(=O)c2ccccc2C)cc1`, for which the IC50 is > 66.2 µM (inactive) in the assay with CHO-K1; > 49.7 µM (inactive) in assay [5]; 1.09 µM (active) in assay [6]; 3.32 µM (active) at Orexin receptor type 2 [7]; 14.6 µM (inactive) in [8]; 17.1 µM (inactive) on Orexin receptor type 2 [9].
For `Cc1cnc(NC(=O)c2cc3c(C)nn(-c4ccccc4)c3s2)s1`, the IC50 in the assay with CHO-K1 is > 66.2 µM (inactive); in assay [5], > 49.7 µM (inactive); in assay [6], 2.21 µM (active); on Orexin receptor type 2 [7], > 50 µM (inactive); in assay [8], 2.37 µM (active); at Orexin receptor type 2 [9], 60.4 µM (inactive). Also, the results for the EC50 (at Streptokinase A; in assay [10]; in the assay on Streptococcus) were > 150 µM (not active), 2.5 µM (active) and > 150 µM (not active), respectively.
`COc1ccccc1-c1sc2ccccc2c1-c1ccc(OCCN2CCCCC2)cc1`: the EC50 in assay [11] is 18.9 µM (active).
`COc1ccc(Oc2c(Cl)cnn(C(C)c3ccccc3C)c2=O)cc1` (stereo not given): the IC50 in [2] is 9.16 µM (active); in [3], 8.01 µM (active).
For the molecule `c1ccc2c(-c3ccc4nncn4c3)cncc2c1`, the IC50 on Interleukin-8 [12] was 12.4 µM (inactive); at Interleukin-8 [13], > 79 µM (inactive).
